Assay results reported in patent US7074789B2, “Kinase inhibitors” (Amgen Inc., priority 1999, dated 2006).

Legend:
Type in all cases: biochemical
IGFR-1 = target: T1, IGFR-1 (Homo sapiens, UniProt P08069); experiment: Kinase inhibition assay (33P transfer), IGFR-1; conditions: Table 2, kinase inhibition class
T1 construct: Kinases are expressed as either kinase domains or full length constructs; made in house

AKT = target: T2, AKT (Homo sapiens, UniProt Q9Y243); experiment: Kinase inhibition assay (33P transfer), AKT; conditions: Table 2, kinase inhibition class; read-out: AKT3-1
T2 construct: Kinases are expressed as either kinase domains or full length constructs; made in house
Procedure, shortened: (§1)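 Each kinase, expressed as a GST- or polyHis-tagged domain or full-length protein, phosphorylated plate-attached poly(Glu,Tyr) 4:1 or poly(Arg,Ser) 3:1 using 33P-ATP. Bound radioactivity was measured by scintillation after a 0.5% phosphoric acid wash.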

Lck = target: T3, Lck (Homo sapiens, UniProt P06239); experiment: Kinase inhibition assay (33P transfer), Lck; conditions: Table 3; read-out: Lck-1
T3 construct: Kinases are expressed as either kinase domains or full length constructs; made in house
Procedure, shortened: as §1

EGFR = target: T4, EGFR (Homo sapiens, UniProt P00533); experiment: Kinase inhibition assay (33P transfer), EGFR; conditions: Table 2, kinase inhibition class; read-out: EGFR-1
T4 construct: Kinases are expressed as either kinase domains or full length constructs; made in house
Procedure, shortened: (§2)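 Steps: coat wells with poly(Glu,Tyr) 4:1 or poly(Arg,Ser) 3:1; add purified kinase, [33P]ATP and inhibitor; incubate; wash with 0.5% phosphoric acid; add liquid scintillant; count. IC50 corresponds to half-maximal reduction of bound 33P.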

Zap-70 = target: T5, Zap-70 (Homo sapiens, UniProt P43403); experiment: Kinase inhibition assay (33P transfer), Zap-70; conditions: Table 3; read-out: Zap-1
T5 construct: Kinases are expressed as either kinase domains or full length constructs; made in house
T5 sequence (P43403 1-619): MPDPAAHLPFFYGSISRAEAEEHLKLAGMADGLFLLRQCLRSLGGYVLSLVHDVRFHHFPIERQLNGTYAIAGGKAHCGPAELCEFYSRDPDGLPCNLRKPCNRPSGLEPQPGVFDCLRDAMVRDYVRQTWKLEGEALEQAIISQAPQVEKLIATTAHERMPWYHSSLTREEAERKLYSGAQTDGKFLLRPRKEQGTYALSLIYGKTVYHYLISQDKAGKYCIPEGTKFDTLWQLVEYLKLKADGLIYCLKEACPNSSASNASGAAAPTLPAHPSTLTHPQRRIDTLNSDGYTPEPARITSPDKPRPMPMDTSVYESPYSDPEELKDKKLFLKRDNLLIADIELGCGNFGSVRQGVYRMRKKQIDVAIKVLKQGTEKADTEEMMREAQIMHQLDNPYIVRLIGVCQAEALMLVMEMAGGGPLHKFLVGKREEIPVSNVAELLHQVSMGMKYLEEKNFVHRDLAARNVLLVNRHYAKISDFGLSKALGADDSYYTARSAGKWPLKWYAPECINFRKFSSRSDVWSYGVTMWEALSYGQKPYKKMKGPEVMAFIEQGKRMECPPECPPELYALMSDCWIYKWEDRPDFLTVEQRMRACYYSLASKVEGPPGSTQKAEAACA
Procedure, shortened: as §1

Kdr = target: T6, Kdr (Homo sapiens, UniProt P35968); experiment: Kinase inhibition assay (33P transfer), Kdr; conditions: Table 3; read-out: KDR-1
T6 construct: Kinases are expressed as either kinase domains or full length constructs; made in house
Procedure, shortened: as §1

Tek = target: T7, Tek (Homo sapiens, UniProt Q02763); experiment: Kinase inhibition assay (33P transfer), Tek; conditions: read-out: Tek-1
T7 construct: Kinases are expressed as either kinase domains or full length constructs; made in house
Procedure, shortened: as §2

c-Met = target: T8, c-Met (Homo sapiens, UniProt P08581); experiment: Kinase inhibition assay (33P transfer), c-Met; conditions: Table 2, kinase inhibition class; read-out: Met-1
T8 construct: Kinases are expressed as either kinase domains or full length constructs; made in house
Procedure, shortened: as §2

Itk = target: T9, Itk (Homo sapiens, UniProt Q08881); experiment: Kinase inhibition assay (33P transfer), Itk; conditions: Table 3; read-out: Itk-1
T9 construct: Kinases are expressed as either kinase domains or full length constructs; made in house
T9 sequence (Q08881 1-620): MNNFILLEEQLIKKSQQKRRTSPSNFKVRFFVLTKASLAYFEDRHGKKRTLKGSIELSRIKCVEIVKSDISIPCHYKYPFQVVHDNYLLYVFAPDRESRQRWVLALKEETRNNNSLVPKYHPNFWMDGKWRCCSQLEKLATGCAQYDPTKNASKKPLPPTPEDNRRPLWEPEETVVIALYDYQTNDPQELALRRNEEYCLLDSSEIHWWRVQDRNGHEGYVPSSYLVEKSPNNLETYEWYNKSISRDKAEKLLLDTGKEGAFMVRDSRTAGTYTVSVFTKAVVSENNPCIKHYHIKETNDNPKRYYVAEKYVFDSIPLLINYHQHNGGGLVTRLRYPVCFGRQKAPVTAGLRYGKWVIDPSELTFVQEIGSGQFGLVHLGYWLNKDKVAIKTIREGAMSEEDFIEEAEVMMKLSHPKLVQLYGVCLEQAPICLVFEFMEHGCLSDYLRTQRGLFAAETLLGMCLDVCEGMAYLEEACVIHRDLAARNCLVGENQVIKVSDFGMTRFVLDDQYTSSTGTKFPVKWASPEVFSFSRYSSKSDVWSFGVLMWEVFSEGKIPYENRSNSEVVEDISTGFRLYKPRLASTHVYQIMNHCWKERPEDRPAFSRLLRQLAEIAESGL
Procedure, shortened: as §2

T7 sequence (Q02763 23-1124, species assumed): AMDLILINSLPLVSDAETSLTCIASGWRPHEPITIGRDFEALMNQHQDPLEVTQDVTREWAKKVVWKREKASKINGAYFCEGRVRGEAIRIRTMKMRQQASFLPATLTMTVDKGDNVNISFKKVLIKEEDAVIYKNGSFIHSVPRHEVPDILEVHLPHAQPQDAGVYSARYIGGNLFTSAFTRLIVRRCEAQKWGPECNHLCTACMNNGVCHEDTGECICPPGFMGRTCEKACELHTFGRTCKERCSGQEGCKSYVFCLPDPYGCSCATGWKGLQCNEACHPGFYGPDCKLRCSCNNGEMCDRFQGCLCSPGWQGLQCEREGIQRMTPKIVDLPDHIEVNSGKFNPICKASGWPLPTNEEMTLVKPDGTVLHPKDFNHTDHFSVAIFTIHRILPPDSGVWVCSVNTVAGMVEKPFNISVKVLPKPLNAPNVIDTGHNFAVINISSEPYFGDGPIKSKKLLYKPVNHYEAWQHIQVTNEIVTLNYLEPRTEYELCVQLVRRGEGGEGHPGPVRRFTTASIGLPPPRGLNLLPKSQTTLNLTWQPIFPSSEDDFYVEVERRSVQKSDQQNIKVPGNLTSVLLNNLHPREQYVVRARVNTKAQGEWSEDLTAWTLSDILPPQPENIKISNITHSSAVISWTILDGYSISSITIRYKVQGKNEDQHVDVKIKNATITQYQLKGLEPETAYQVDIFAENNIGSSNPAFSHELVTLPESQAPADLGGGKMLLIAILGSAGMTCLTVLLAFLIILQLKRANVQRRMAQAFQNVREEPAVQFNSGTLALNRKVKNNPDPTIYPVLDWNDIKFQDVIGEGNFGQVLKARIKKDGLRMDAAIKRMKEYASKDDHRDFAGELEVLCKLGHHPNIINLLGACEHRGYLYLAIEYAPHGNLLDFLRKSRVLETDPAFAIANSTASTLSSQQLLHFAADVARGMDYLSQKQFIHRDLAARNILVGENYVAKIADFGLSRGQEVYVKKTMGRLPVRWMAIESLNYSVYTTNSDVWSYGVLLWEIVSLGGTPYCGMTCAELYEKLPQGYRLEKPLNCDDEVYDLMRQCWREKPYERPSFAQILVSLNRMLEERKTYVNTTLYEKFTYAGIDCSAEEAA
T2 sequence (Q9Y243 whole entry, the tested form may be a part): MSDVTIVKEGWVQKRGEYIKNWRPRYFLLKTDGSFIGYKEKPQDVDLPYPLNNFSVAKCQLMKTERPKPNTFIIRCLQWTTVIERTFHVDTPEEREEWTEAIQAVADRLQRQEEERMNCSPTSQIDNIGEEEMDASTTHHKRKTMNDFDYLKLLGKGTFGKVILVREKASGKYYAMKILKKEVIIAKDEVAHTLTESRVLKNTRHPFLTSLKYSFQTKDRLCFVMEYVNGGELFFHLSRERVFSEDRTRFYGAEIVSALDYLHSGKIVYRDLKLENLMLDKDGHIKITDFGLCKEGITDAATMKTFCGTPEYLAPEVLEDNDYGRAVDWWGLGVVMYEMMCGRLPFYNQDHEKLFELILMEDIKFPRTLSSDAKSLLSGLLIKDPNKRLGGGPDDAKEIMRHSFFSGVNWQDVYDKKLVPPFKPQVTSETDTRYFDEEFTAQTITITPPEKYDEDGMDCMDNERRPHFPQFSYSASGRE
T3 sequence (P06239 whole entry, species assumed, the tested form may be a part): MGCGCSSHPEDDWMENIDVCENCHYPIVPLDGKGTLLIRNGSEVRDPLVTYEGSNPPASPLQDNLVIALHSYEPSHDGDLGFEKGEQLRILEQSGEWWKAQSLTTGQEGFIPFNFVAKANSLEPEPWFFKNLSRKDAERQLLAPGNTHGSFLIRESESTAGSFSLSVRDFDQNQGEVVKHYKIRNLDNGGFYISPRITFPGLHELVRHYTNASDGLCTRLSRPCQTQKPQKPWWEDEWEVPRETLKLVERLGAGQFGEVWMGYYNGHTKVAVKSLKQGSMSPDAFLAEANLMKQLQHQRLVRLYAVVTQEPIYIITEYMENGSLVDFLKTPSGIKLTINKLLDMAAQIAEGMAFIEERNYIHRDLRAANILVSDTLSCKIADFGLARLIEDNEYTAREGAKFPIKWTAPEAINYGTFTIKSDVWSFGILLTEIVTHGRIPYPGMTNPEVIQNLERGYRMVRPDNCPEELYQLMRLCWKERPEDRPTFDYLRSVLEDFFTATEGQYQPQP
T4 sequence (P00533 25-1210, species assumed): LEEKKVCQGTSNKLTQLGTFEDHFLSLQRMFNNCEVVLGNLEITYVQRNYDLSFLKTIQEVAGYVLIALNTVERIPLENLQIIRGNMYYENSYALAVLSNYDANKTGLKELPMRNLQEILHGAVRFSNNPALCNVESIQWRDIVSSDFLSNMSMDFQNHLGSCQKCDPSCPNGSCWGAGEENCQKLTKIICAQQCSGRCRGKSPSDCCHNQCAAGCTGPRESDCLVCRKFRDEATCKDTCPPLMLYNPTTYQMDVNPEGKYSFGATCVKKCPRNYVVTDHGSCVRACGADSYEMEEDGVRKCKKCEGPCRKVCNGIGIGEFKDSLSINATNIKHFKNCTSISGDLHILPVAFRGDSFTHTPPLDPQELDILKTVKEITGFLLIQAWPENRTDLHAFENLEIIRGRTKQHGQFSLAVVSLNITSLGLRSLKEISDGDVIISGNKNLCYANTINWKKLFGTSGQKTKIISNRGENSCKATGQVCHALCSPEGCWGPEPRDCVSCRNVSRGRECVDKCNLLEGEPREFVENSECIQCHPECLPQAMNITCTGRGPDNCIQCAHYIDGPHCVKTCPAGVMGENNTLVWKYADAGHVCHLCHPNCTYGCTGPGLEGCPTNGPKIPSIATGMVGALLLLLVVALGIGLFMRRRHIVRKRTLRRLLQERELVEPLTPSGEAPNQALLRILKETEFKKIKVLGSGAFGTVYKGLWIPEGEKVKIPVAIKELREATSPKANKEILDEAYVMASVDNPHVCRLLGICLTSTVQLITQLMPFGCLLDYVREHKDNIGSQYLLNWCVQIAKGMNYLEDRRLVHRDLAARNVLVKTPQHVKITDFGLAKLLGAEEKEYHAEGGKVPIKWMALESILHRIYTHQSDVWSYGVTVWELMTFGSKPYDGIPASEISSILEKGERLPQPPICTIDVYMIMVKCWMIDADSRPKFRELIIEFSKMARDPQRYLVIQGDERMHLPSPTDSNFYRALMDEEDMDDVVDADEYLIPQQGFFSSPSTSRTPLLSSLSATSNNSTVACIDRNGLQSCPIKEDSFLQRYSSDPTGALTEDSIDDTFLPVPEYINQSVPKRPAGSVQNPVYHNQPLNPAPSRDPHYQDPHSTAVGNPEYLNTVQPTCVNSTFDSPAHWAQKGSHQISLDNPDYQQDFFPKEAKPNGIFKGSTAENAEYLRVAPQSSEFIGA
T6 sequence (P35968 20-1356, species assumed): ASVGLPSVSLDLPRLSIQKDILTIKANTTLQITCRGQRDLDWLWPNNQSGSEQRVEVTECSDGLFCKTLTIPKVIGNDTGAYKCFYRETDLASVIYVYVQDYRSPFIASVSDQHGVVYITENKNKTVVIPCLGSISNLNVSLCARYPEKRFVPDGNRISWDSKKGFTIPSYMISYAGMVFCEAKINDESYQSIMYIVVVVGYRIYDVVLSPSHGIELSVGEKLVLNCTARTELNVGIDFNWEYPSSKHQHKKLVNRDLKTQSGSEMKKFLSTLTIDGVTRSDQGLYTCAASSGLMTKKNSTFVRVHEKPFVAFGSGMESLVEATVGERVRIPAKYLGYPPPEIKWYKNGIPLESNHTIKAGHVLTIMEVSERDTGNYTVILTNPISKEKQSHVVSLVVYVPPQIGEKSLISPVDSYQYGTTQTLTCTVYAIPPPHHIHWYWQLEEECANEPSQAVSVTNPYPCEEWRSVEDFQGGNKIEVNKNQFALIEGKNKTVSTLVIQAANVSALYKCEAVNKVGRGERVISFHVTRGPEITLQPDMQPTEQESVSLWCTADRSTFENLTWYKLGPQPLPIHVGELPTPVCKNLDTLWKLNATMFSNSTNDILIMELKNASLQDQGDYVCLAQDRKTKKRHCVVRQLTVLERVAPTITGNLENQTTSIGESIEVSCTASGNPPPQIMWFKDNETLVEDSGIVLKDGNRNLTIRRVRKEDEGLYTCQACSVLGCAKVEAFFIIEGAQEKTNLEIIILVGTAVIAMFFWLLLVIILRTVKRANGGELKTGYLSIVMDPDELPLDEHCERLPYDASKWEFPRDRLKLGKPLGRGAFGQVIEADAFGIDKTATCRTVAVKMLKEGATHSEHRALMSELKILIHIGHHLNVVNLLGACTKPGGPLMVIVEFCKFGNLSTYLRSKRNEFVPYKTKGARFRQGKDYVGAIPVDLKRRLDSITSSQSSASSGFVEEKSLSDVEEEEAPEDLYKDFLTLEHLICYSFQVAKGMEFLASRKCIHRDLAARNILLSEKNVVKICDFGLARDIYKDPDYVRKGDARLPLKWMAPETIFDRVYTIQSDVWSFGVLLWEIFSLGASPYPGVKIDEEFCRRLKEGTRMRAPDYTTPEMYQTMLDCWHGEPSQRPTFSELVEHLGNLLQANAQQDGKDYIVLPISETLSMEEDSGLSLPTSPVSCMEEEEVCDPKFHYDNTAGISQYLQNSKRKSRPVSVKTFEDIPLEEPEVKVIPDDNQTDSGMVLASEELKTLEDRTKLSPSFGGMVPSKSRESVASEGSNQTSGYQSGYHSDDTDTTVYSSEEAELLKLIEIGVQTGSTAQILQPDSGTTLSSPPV

IC50 (IGFR-1)	IC50 (AKT)	IC50 (Lck)	IC50 (EGFR)	IC50 (Zap-70)	IC50 (Kdr)	IC50 (Tek)	IC50 (c-Met)	IC50 (Itk)	Structure (SMILES)
> 16.2 µM	> 16.2 µM	> 16.2 µM	> 16.2 µM	12.6 to 16.2 µM	> 16.2 µM	> 16.2 µM	> 16.2 µM	> 16.2 µM	COc1ccc(Nc2ncnc(-c3ccccc3)n2)cc1 [Compound 14]
> 16.2 µM	> 16.2 µM	> 16.2 µM	> 16.2 µM	> 16.2 µM	12.6 to 16.2 µM	> 16.2 µM	> 16.2 µM	> 16.2 µM	COc1ccccc1Nc1ncnc(-c2ccccc2)n1 [Compound 12]
> 11.3 µM	8.76 to 11.3 µM	> 11.3 µM	1 to 6.01 µM	> 11.3 µM	> 11.3 µM	> 11.3 µM	8.76 to 11.3 µM	> 11.3 µM	COc1cccc(Nc2ncnc(Nc3ccc(OCc4ccccc4)cc3)n2)c1 [Compound 160]
6.6 to 9.63 µM	> 12.4 µM	> 12.4 µM	> 12.4 µM	6.6 to 9.63 µM	6.6 to 9.63 µM	> 12.4 µM	> 12.4 µM	> 12.4 µM	CC(C)(C)OC(=O)Nc1ccc(Nc2ncnc(-c3ccccc3)n2)cc1 [Compound 19]
> 16.2 µM	> 16.2 µM	> 16.2 µM	> 16.2 µM	> 16.2 µM	> 16.2 µM	> 16.2 µM	> 16.2 µM	> 16.2 µM	COc1cccc(Nc2ncnc(-c3ccccc3)n2)c1 [Compound 13]
> 15.4 µM	> 15.4 µM	> 15.4 µM	> 15.4 µM	> 15.4 µM	> 15.4 µM	–	> 15.4 µM	> 15.4 µM	NC(=O)c1ccc(Nc2ncnc(-c3ccccc3)n2)cc1 [Compound 1028]
> 13.3 µM	> 13.3 µM	> 13.3 µM	> 13.3 µM	> 13.3 µM	1.18 to 7.07 µM	–	> 13.3 µM	> 13.3 µM	COc1cc(Nc2ncnc(-c3cccnc3)n2)cc(OC)c1OC [Compound 219]
> 15.6 µM	> 15.6 µM	> 15.6 µM	> 15.6 µM	> 15.6 µM	> 15.6 µM	–	> 15.6 µM	> 15.6 µM	Clc1cccc(Nc2ncnc(-c3cccs3)n2)c1 [Compound 360]
> 14.7 µM	> 14.7 µM	> 14.7 µM	> 14.7 µM	> 14.7 µM	> 14.7 µM	–	> 14.7 µM	> 14.7 µM	COC(=O)c1ccc(Nc2ncnc(-c3ccccc3)n2)cc1 [Compound 163]
< 0.888 µM	> 9.99 µM	> 9.99 µM	> 9.99 µM	> 9.99 µM	> 9.99 µM	> 9.99 µM	> 9.99 µM	> 9.99 µM	COc1cc(Nc2ncnc(-n3c(NCC(N)=O)nc4ccccc43)n2)cc(OC)c1OC [Compound 389]
> 14.6 µM	> 14.6 µM	> 14.6 µM	> 14.6 µM	11.4 to 14.6 µM	> 14.6 µM	> 14.6 µM	> 14.6 µM	> 14.6 µM	COc1cc(Nc2ncnc(-c3ccccc3)n2)cc(OC)c1 [Compound 15]
> 16.9 µM	> 16.9 µM	> 16.9 µM	> 16.9 µM	> 16.9 µM	> 16.9 µM	–	> 16.9 µM	> 16.9 µM	Fc1ccccc1Nc1ncnc(-c2ccccc2)n1 [Compound 20]
> 13.1 µM	> 13.1 µM	1.16 to 6.97 µM	> 13.1 µM	> 13.1 µM	6.97 to 10.2 µM	–	10.2 to 13.1 µM	> 13.1 µM	COc1cc(Nc2ncnc(-c3cccs3)n2)cc(OC)c1OC [Compound 217]
> 14.5 µM	> 14.5 µM	> 14.5 µM	> 14.5 µM	> 14.5 µM	> 14.5 µM	–	> 14.5 µM	> 14.5 µM	CC(=O)Nc1ccc(Nc2ncnc(-c3cccs3)n2)cc1 [Compound 355]
> 13.5 µM	> 13.5 µM	> 13.5 µM	> 13.5 µM	> 13.5 µM	> 13.5 µM	–	> 13.5 µM	> 13.5 µM	CCOC(=O)Cc1ccc(Nc2ncnc(-c3ccccc3)n2)cc1 [Compound 164]
> 9.67 µM	> 9.67 µM	5.16 to 7.52 µM	> 9.67 µM	> 9.67 µM	0.859 to 5.16 µM	–	> 9.67 µM	> 9.67 µM	COc1cc(Nc2ncnc(-n3c(NCCCCO)nc4ccccc43)n2)cc(OC)c1OC [Compound 392]
> 17 µM	> 17 µM	9.08 to 13.2 µM	> 17 µM	> 17 µM	9.08 to 13.2 µM	> 17 µM	> 17 µM	> 17 µM	Oc1cccc(Nc2ncnc(-c3ccccc3)n2)c1 [Compound 18]
> 11.4 µM	> 11.4 µM	> 11.4 µM	> 11.4 µM	> 11.4 µM	> 11.4 µM	–	> 11.4 µM	> 11.4 µM	COc1cc(Nc2ncnc(N3CCc4ccccc4C3)n2)cc(OC)c1OC [Compound 326]
> 10.1 µM	> 10.1 µM	> 10.1 µM	> 10.1 µM	> 10.1 µM	5.38 to 7.84 µM	–	> 10.1 µM	> 10.1 µM	COc1cc(Nc2ncnc(N3CCN(C(=O)OC(C)(C)C)CC3)n2)cc(OC)c1OC [Compound 211]
> 13.6 µM	> 13.6 µM	> 13.6 µM	> 13.6 µM	> 13.6 µM	> 13.6 µM	–	> 13.6 µM	> 13.6 µM	COc1cc(Nc2ncnc(N3CCCC3)n2)cc(OC)c1OC [Compound 181]
> 10.6 µM	> 10.6 µM	> 10.6 µM	> 10.6 µM	> 10.6 µM	0.942 to 5.65 µM	–	5.65 to 8.25 µM	> 10.6 µM	COc1cc(Nc2ncnc(N3CCN(c4ncccn4)CC3)n2)cc(OC)c1OC [Compound 214]
> 12.2 µM	> 12.2 µM	> 12.2 µM	> 12.2 µM	> 12.2 µM	> 12.2 µM	–	> 12.2 µM	> 12.2 µM	FC(F)C(F)(F)Oc1cccc(Nc2ncnc(-c3cccs3)n2)c1 [Compound 350]
> 14.4 µM	> 14.4 µM	> 14.4 µM	> 14.4 µM	> 14.4 µM	11.2 to 14.4 µM	–	> 14.4 µM	> 14.4 µM	Clc1ncnc(Nc2ccc(OCc3ccccc3)cc2)n1 [Compound 153]
> 10.3 µM	> 10.3 µM	8 to 10.3 µM	> 10.3 µM	> 10.3 µM	0.914 to 5.49 µM	–	> 10.3 µM	> 10.3 µM	COc1cc(Nc2ncnc(-n3c(NCCO)nc4ccccc43)n2)cc(OC)c1OC [Compound 391]
